Laboratory results taken from patent US12600723B2, “Tetracyclic compounds as DGK inhibitors” (Incyte Corporation, priority 2022, dated 2026).

Key:
DGKα = biological target: T1, DGKα (Homo sapiens, UniProt P23743); assay: In vitro DGKα inhibition assay (ADP-Glo); format: biochemical; details: His-tagged human recombinant DGKα 0.1 nM, 50 μM ATP, 20 μM DLG, 90 minute incubation
T1 construct: His; purchased Signal Chem D21-10BH
Procedure: (§1) The DGKα and DGKζ biochemical reactions were performed using His-tagged human recombinant enzymes (Signal Chem, DGKα, #D21-10BH; DGKζ, #D30-10H)) and DLG (Dilauroyl-sn-glycerol) lipid substrate (Signal Chem, #D430-59). ADP-Glo assay was performed using ADP-Glom kinase Assay kit (Promega, #V9104). The reactions were carried out in assay buffer containing 40 mM Tris, pH 7.5, 0.1% CHAPS, 0.1% Prionex, 40 mM NaCl, 5 mM MgCl2, 1 mM CaCl2), and 1 mM DTT. DGKα reactions contained 0.1 nM DGKα, 50 μM ATP, and 20 μM DLG. And DGKζ reactions contained 0.4 nM DGKζ, 30 μM ATP, and 20 μM DLG.
(§2) For compound inhibition studies, 40 nL test compound in DMSO was added to wells of white polystyrene plates in 384-well (Greiner, #784075) or 1536-well format (Greiner, #782075). Compounds were added with top concentration of 2 mM with 11 point, 3-fold dilution series. Enzyme solution (contains 2×DGK enzyme concentration in 1× assay buffer) was added to the plate in 2 μL/well volume, followed by 2 μL/well of substrate solution (contains 2× concentration of ATP and DLG substrate in 1× assay buffer). Plates were then centrifuged for 1 min at 1200 RPM and sealed or lidded. For 4 μL reaction volume, test compounds were therefore diluted 100× to final top concentration of 20 μM. After 90 minute incubation, reactions were quenched by addition of 2 μL/well Promega ADP-Glo Reagent, followed by centrifugation and lidding. After 60 min incubation, 2 μL/well Promega Kinase Detection Reagent was added, plates centrifuged, and incubated for 30 min. Plates were then read using Luminescence method on BMG PHERAstar FSX plate reader. Percent inhibition was calculated and IC50s were determined using 4-parameter fit in Genedata Screener. Labcyte Echo acoustic dispenser was used for compound addition, and Formulatrix Tempest liquid handler was used for all reagent dispenses.

DGKζ = biological target: T2, DGKζ (Homo sapiens, UniProt Q13574); assay: In vitro DGKζ inhibition assay (ADP-Glo); format: biochemical; details: His-tagged human recombinant DGKζ 0.4 nM, 30 μM ATP, 20 μM DLG, 90 minute incubation
T2 construct: His; purchased Signal Chem D30-10H
Procedure: as §1, §2

T1 sequence (P23743 whole entry): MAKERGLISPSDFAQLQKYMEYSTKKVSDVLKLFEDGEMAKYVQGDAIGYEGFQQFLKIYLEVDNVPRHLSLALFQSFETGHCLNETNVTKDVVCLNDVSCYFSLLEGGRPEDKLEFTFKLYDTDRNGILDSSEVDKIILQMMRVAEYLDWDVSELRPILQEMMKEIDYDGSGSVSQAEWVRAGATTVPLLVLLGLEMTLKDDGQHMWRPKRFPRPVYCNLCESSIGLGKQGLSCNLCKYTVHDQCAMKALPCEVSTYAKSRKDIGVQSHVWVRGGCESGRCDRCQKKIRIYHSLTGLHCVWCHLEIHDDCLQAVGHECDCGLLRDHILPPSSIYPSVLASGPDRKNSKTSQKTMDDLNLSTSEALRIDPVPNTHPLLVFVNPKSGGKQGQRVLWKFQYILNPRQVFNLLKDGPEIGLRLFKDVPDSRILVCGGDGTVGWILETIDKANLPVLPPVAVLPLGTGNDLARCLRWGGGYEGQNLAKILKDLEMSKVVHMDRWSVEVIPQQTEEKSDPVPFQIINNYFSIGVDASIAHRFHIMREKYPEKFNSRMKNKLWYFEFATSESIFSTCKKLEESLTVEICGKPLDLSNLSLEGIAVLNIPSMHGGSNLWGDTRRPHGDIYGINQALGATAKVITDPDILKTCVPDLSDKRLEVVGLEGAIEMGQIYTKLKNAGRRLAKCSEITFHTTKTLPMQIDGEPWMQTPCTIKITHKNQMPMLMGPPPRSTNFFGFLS
T2 sequence (Q13574 whole entry): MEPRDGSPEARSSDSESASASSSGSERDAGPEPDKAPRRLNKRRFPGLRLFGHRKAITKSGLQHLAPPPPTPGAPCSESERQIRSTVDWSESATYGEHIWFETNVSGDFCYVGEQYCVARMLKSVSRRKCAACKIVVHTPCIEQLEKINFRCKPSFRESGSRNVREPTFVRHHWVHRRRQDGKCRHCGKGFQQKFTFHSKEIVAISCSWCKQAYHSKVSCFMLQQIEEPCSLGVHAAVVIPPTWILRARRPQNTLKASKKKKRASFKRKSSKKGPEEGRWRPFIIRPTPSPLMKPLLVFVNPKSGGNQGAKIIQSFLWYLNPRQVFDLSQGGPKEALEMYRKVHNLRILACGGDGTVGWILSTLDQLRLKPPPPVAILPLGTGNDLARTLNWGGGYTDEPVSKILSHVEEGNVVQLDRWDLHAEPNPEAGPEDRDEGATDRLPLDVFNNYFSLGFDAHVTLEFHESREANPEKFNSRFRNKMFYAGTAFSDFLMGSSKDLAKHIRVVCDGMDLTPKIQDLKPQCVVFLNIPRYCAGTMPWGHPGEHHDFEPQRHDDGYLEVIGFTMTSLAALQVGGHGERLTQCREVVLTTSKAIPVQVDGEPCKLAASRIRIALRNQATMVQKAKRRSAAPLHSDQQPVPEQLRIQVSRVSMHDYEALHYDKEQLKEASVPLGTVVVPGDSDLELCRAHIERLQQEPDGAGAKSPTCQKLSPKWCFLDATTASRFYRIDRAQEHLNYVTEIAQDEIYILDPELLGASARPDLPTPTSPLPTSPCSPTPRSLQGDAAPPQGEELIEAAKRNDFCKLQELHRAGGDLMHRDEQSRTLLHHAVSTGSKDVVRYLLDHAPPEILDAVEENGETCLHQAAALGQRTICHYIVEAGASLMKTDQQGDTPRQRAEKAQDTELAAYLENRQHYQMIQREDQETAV

SMILES	IC50 (DGKα) [nM]	IC50 (DGKζ) [nM]
COCCN1C(=O)[C@H]2CN(C(c3ccc(F)cc3)c3ccc(F)cc3)[C@H](C)CN2c2c1c(=O)n(C)c1ccc(C#N)nc21 [Example 2, (8aR,11R)-10-(Bis(4-fluorophenyl)methyl)-7-(2-methoxyethyl)-5,11-dimethyl-6,8-dioxo-5,7,8,8a,9,10,11,12-octahydro-6H-pyrazino[1′,2′:4,5]pyrazino[2,3-c][1,5]naphthyridine-2-carbonitrile]	40 to 200	200 to 2000
C[C@@H]1CN2c3c(c(=O)n(C)c4ccc(F)nc34)N(C)C(=O)[C@H]2CN1C(c1ccc(F)cc1)c1ccc(F)cc1 [Example 4, (8aR,11R)-10-(Bis(4-fluorophenyl)methyl)-2-fluoro-5,7,11-trimethyl-5,7,9,10,11,12-hexahydro-6H-pyrazino[1′,2′:4,5]pyrazino[2,3-c][1,5]naphthyridine-6,8(8aH)-dione]	≤ 40	200 to 2000
C[C@@H]1CN2c3c(c(=O)n(C)c4ccc(C#N)nc34)N(C)C(=O)[C@H]2CN1C(c1ccc(F)cc1)c1ccc(F)cc1 [Example 1, (8aR,11R)-10-(Bis(4-fluorophenyl)methyl)-5,7,11-trimethyl-6,8-dioxo-5,7,8,8a,9,10,11,12-octahydro-6H-pyrazino[1′,2′:4,5]pyrazino[2,3-c][1,5]naphthyridine-2-carbonitrile]	≤ 40	200 to 2000
Cc1ccc2c(n1)c1c(c(=O)n2C)N(C)C(=O)[C@H]2CN(C(c3ccc(F)cc3)c3ccc(F)cc3)[C@H](C)CN12 [Example 5, (8aR,11R)-10-(Bis(4-fluorophenyl)methyl)-2,5,7,11-tetramethyl-5,7,9,10,11,12-hexahydro-6H-pyrazino[1′,2′:4,5]pyrazino[2,3-c][1,5]naphthyridine-6,8(8aH)-dione]	≤ 40	> 2000
C[C@@H]1CN2c3c(c(=O)n(C)c4ccccc34)N(C)C(=O)[C@H]2CN1C(c1ccc(F)cc1)c1ccc(F)cc1 [Example 3, (2R,4aR)-3-(Bis(4-fluorophenyl)methyl)-2,6,8-trimethyl-2,3,4,4a,6,8-hexahydro-1H-pyrazino[1′,2′:4,5]pyrazino[2,3-c]quinoline-5,7-dione]	≤ 40	> 2000

The next lines start with the values.

IC50 (DGKα) [nM]	IC50 (DGKζ) [nM]	SMILES
≤ 40	≤ 40	C[C@@H]1CN2c3c(c(=O)n(C)c4ccc(CC#N)nc34)N(C)C(=O)[C@H]2CN1C(c1ccc(F)cc1)c1ccc(F)cc1 [Example 6, 2-((8aR,11R)-10-(Bis(4-fluorophenyl)methyl)-5,7,11-trimethyl-6,8-dioxo-5,7,8,8a,9,10,11,12-octahydro-6H-pyrazino[1′,2′:4,5]pyrazino[2,3-c][1,5]naphthyridin-2-yl)acetonitrile]
≤ 40	> 2000	C[C@@H]1CN2c3c(c(=O)n(C)c4ccc(-c5cnn(C)c5)nc34)N(C)C(=O)[C@H]2CN1C(c1ccc(F)cc1)c1ccc(F)cc1 [Example 8, (8aR,11R)-10-(Bis(4-fluorophenyl)methyl)-5,7,11-trimethyl-2-(1-methyl-1H-pyrazol-4-yl)-5,7,9,10,11,12-hexahydro-6H-pyrazino[1′,2′:4,5]pyrazino[2,3-c][1,5]naphthyridine-6,8(8aH)-dione]
≤ 40	> 2000	COc1ccc2c(n1)c1c(c(=O)n2C)N(C)C(=O)[C@H]2CN(C(c3ccc(F)cc3)c3ccc(F)cc3)[C@H](C)CN12 [Example 7, (8aR,11R)-10-(Bis(4-fluorophenyl)methyl)-2-methoxy-5,7,11-trimethyl-5,7,9,10,11,12-hexahydro-6H-pyrazino[1′,2′:4,5]pyrazino[2,3-c][1,5]naphthyridine-6,8(8aH)-dione]
≤ 40	> 2000	C[C@@H]1CN2c3c(c(=O)n(C)c4ccc(=O)[nH]c34)N(C)C(=O)[C@H]2CN1C(c1ccc(F)cc1)c1ccc(F)cc1 [Example 9, (8aR,11R)-10-(Bis(4-fluorophenyl)methyl)-5,7,11-trimethyl-5,7,9,10,11,12-hexahydro-1H-pyrazino[1′,2′:4,5]pyrazino[2,3-c][1,5]naphthyridine-2,6,8(8aH)-trione]
